Source: patent publication US9586928B2 (The Scripps Research Institute, priority 2011, dated 2017)

Legend:
FXR = biological target: T1, FXR (Homo sapiens, UniProt Q96RI1); assay: Gal4-FXR / UAS luciferase cotransfection assay; type: cell-based; conditions: Gal4 chimeric cotransfection
T1 sequence (Q96RI1 262-486 limits assumed): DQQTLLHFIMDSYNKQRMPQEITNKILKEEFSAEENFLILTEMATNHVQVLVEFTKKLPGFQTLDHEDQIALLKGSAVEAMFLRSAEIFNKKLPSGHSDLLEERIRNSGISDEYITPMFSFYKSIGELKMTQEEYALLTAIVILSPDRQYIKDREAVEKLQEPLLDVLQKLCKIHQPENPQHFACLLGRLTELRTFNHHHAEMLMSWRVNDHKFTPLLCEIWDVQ
Experimental: Cotransfection assays were performed as previously described in HEK293 cells (Gal4 cotransfection assay or IL-17 luciferase reporter)[8]. HEK293 and the mouse lymphoma EL4 (ATCC) cells were maintained in DMEM supplemented with 10% FBS plus antibiotics (penicillin and streptomycin; Invitrogen).

EL-4 cells = assay: Intracellular IL-17 in PMA/ionomycin stimulated EL-4 cells (flow cytometry); type: cell-based, murine; conditions: 5 μM, compared to vehicle treated cells
Experimental: The treatment of EL4 with SR2211 repressed the Il17 gene expression to a greater extent as compared to digoxin. […] In order to measure the effect of SR2211 on IL-17 production, we determined the intracellular levels of IL-17 using flow cytometry. After the stimulation of EL-4 cells with PMA/ionomycin for 3 hr, the cells were treated with BD GolgiPlug™ (protein transport inhibitor) to allow intracellular accumulation of cytokines. After 2 hr, the cells were fixed and stained to analyze the IL-17 by flow cytometry.
For intracellular cytokine staining, cells were stimulated with PMA (50 ng/Ml) and lonomycin (1 ug/ml) for 5 hrs. After 3 hrs of incubation, BD Golgiplug (BD Bioscience) was added and incubated for 2 hrs. Then, cells were fixed, permeabilized, and stained with PEIL17A Ab (BD Biosciences). Cell sorting was performed using LSRII (BD Biosciences). • 1. Ivanov, I I; McKenzie, B. S.; Zhou, L.; Tadokoro, C. E.; Lepelley, A.; Lafaille, J. J.; Cua, D. J.; Littman, D. R. (2006) The orphan nuclear receptor RORgammat directs the differentiation program of proinflammatory IL-17+ T helper cells. Cell 126, 1121-1133. • 2. Nakae, S.; Nambu, A.; Sudo. K.; Iwakura. Y. (2003) Suppression of immune induction of collagen-induced arthritis in IL-17-deficient mice. J Immunol 171, 6173-6177. • 3. Jetten. […]

## OC(c1ccc(-c2ccc(CN3CCN(Cc4ccncc4)CC3)cc2)c(F)c1)(C(F)(F)F)C(F)(F)F [SR2211, 1,1,1,3,3,3-hexafluoro-2-(2-fluoro-4′-((4-(pyridin-4-ylmethyl)piperazin-1-yl)methyl)-[1,1′-biphenyl]-4-yl)propan-2-ol]
FXR
  effect on transcriptional activity of FXR: no effect on the transcriptional activity of FXR
EL-4 cells
  IL-17 intracellular staining: significant inhibition of IL-17 intracellular staining
